Results taken from the NIST ThermoML archive (doi:10.1016/j.jct.2014.11.007).

Test: mn = molality of the nth substance listed, in mol/kg
Details: 100 kPa, Liquid; for speed of sound: Frequency=3 MHz, Sing-around technique in a fixed-path interferometer; for mass density: Vibrating tube method

O=C([O-])Cc1ccccc1Nc1c(Cl)cccc1Cl.[Na+] [sodium diclofenac] + O
Details	mass density, 293.15 K [kg/m3]	mass density, 298.15 K [kg/m3]	mass density, 303.15 K [kg/m3]	mass density, 308.15 K [kg/m3]	mass density, 313.15 K [kg/m3]	speed of sound, 293.15 K [m/s]	speed of sound, 298.15 K [m/s]	speed of sound, 303.15 K [m/s]	speed of sound, 308.15 K [m/s]	speed of sound, 313.15 K [m/s]
m1 = 0.00165	998.454	997.297	995.899	994.285	992.465	1483.5	1497.6	1509.9	1520.6	1529.6
m1 = 0.00255	998.563	997.404	996.005	994.389	992.569	1483.7	1497.7	1510	1520.7	1529.7
m1 = 0.0027	998.582	997.423	996.023	994.407	992.587	1483.7	1497.7	1510	1520.7	1529.7
m1 = 0.00314	998.638	997.477	996.078	994.461	992.64	1483.7	1497.8	1510.1	1520.7	1529.8
m1 = 0.00352	998.687	997.527	996.125	994.508	992.687	1483.8	1497.8	1510.1	1520.8	1529.8
m1 = 0.00413	998.769	997.607	996.205	994.588	992.767	1483.9	1497.9	1510.2	1520.8	1529.8
m1 = 0.00504	998.896	997.733	996.33	994.71	992.886	1484	1498	1510.3	1520.9	1529.9
m1 = 0.00604	999.044	997.88	996.477	994.853	993.027	1484.1	1498.1	1510.4	1521	1530
m1 = 0.00698	999.192	998.027	996.618	994.995	993.169	1484.2	1498.2	1510.5	1521.1	1530.1
m1 = 0.00742	999.257	998.095	996.689	995.064	993.238	1484.3	1498.3	1510.6	1521.1	1530.1
